Consider 95 molecules from PubChem BioAssay AID2401 (Southern Research Specialized Biocontainment Screening …, 2010).

The test system of this assay is S. Typhimurium GFP reporter counter-screen, fluorescence, 4 h. Put plainly: S. Typhimurium nonspecific reporter signal inhibition – Salmonella Typhimurium, GFP fluorescence, counter-screen for PhoP regulon inhibitor project, dose response (AID 2401).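 Also: S. typhimurium with Mg-insensitive nmpC-GFP reporter grown at 10 µM Mg2+; drop in reporter fluorescence reflects general culture growth inhibition.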
Turning to `N=C(N)SCc1cn(-c2ccccc2)nc1-c1ccc(Br)cc1`, the IC50 is 20.3 µM. Regarding `O=c1[nH]c2ccccc2n2c(=S)[nH]nc12`, the IC50 is 37.5 µM. With `Cc1ccc(NC(=O)NCC2CCN(Cc3cccc(Cl)c3)CC2)cc1Cl` the figure was 70.2 µM; with `CCCCCc1ccc(OCCOCCn2c[n+](C)c3ccccc32)c(CCCCC)c1`, 63.2 µM; with `Nc1[nH]c(=O)ncc1F`, 92.7 µM.

On to `O=C(N/N=C/c1cc(O)ccc1Br)c1cccnc1`, for which the IC50 is 25.4 µM. Under `Cc1nc(N)c(Cc2ccc(Cl)cc2Cl)c(N)n1` stands 40.6 µM; under `CN(C)c1ccc(/C=C/c2ccc3c4ccccc4ccc3[n+]2-c2ccccc2)cc1`, 18.8 µM. On to `CCCCCCOC(=O)C[N+](C)(C)CCOC1CC2CCC1(C)C2(C)C` (stereo not given), for which the IC50 was 31.9 µM. As for `CCNC(=S)NNC(=O)c1ccccn1`, the IC50 is 36.4 µM. `O=c1[nH][nH]c(-c2ccccc2O)c1C(C[N+](=O)[O-])c1cccc(Cl)c1` (stereo not given): the half-inhibitory concentration (IC50) was 69.8 µM. Under `CN1CCN(C(c2ccc(Cl)cc2)c2cc(Cl)c3cccnc3c2O)CC1` (stereo not given) stands 33.5 µM.

As for `O=C(CN1CC(c2ccccc2)CC1=O)N/N=C/c1cc(Br)ccc1O` (stereo not given), the IC50 is 139 µM. With `CCCCCCCCNc1ncnc2ccccc12`, the IC50 is 150 µM.

`Cc1nnc(N/N=C/c2ccccn2)[nH]c1=O`: the IC50 was 18 µM. Take `Cc1nc(N)nc(N)c1/C=C/C(C)(C)c1ccc(Cl)cc1`: the IC50 was 8.11 µM. Under `COc1nsnc1NS(=O)(=O)c1ccc(NC(=S)NC(=O)c2cccnc2)cc1` stands 42.6 µM. Take `CNc1cc(Cl)c2nonc2c1[N+](=O)[O-]`: the IC50 was 37.7 µM. `CN(C)CCCN(C(=O)CCc1ccccc1)c1nc2ccc(Cl)cc2s1`: the IC50 was 39 µM. Under `CC(=O)Oc1cc2cccc(OC(C)=O)c(=O)c2c(OC(C)=O)c1OC(C)=O` stands 62.8 µM; under `CCC(C)NC(=O)c1cn(CC)c2cc(N3CCN(C)CC3)c(F)cc2c1=O` (stereo not given), 70.6 µM. Under `Cc1ccc(S(=O)(=O)NC2=NCN(CCOC(=O)c3ccc([N+](=O)[O-])cc3)CN2)cc1` stands 145 µM.

Turning to `CN(C)c1ccc(O)c2c1CC1CC3C(N(C)C)C(=O)C(C(N)=O)=C(O)[C@@]3(O)C(=O)C1=C2O` (stereo not given in full), the IC50 was 3.97 µM. With `CCN1/C(=C/C=C/c2sc3ccccc3[n+]2CC)Sc2ccccc21`, the IC50 is 32.9 µM.

With `Cc1sc2ncnc(N/N=C/c3ccccc3O)c2c1C`, the 50% inhibitory concentration (IC50) was 72.3 µM.

Take `COc1c(N2CCNC(C)C2)c(F)cc2c(=O)c(C(=O)O)cn(C3CC3)c12` (stereo not given): the IC50 is 1.05 µM.

As to `O=[N+]([O-])c1ccc(Sc2nc3ccccc3o2)c([N+](=O)[O-])c1`, the IC50 was 103 µM. Under `Nc1cc(Cl)c2nonc2c1[N+](=O)[O-]` stands 54.1 µM; under `O=C(C[n+]1cc(-c2ccc(Cl)cc2)n2c1CCC2)Nc1nc(-c2ccccc2)cs1`, 84 µM; under `CC1CCc2cc(F)cc3c(=O)c(C(=O)O)cn1c23` (stereo not given), 20.9 µM. For `O=C(N[C@H](CO)[C@H](O)c1ccc([N+](=O)[O-])cc1)C(Cl)Cl`, the IC50 was 9.59 µM. Turning to `O=S1(=O)CCC(NC(=S)SCCOc2ccccc2)C1` (stereo not given), the IC50 is 64.8 µM. Take `O=C(Nc1nc(-c2ccccn2)cs1)c1ccc(Cl)s1`: the IC50 was 28.6 µM. On to `OC(c1cc(-c2ccc(C(F)(F)F)cc2)nc(C(F)(F)F)c1)C1CCCCN1` (stereo not given), for which the IC50 is 29.5 µM.

As to `Cc1cccc(Nc2nc(NCc3ccco3)c3ccccc3n2)c1`, the IC50 was 54.6 µM. As for `CNC(=S)N1CCN(c2c(F)cc3c(=O)c(C(=O)O)cn(C4CC4)c3c2OC)CC1C` (stereo not given), the IC50 is 44.2 µM. With `O=c1c(O)cccc2cc(O)c(O)c(O)c12` the figure was 21.9 µM; with `CC(Cc1ccccc1)NCc1ccccc1O` (stereo not given), 28.2 µM; with `CCC(C)N1CCC2(CC1)N=c1c(c3c4c5c(C)c(O)c3c(O)c1=NC(=O)C(C)=CC=C[C@H](C)[C@H](O)[C@@H](C)[C@@H](O)[C@@H](C)[C@H](OC(C)=O)[C@H](C)[C@@H](OC)C=CO[C@@](C)(O5)C4=O)N2` (stereo not given in full), 2.28 µM.

Turning to `O=C(Nc1cccc(N=Cc2cc(Br)cc(Br)c2O)c1)c1ccco1`, the IC50 was 104 µM. Regarding `Nc1cccc2nc3ccccc3cc12`, the IC50 is 26.7 µM.

Turning to `Cc1cc(C(=O)N/N=C/c2ccc([N+](=O)[O-])s2)n[nH]1`, the IC50 was 35 µM.

`CCCC(=O)NC(c1ccc(Cl)cc1)c1ccc2cccnc2c1O` (stereo not given): the IC50 was 108 µM.

Consider `CCCCCCCCCCOC(=O)Cn1c(COc2ccccc2)[n+](C)c2ccccc21`, for which the IC50 is 19.2 µM. Under `Oc1ccc(CNc2ccccc2F)c2cccnc12` stands 45.7 µM; under `Oc1ccc(N=Cc2ccc(O)c(O)c2)cc1`, 118 µM. Consider `CCc1ccc(NC(=O)C[n+]2cc(-c3ccc(C)cc3)n3c2CCC3)cc1`, for which the IC50 was 85.9 µM. Consider `CCCc1nnc(NC(=O)c2cn(CC)c3cc(N4CCN(C)CC4)c(F)cc3c2=O)s1`, for which the IC50 is 117 µM. Regarding `COc1ccc(CNC[C@@H](CCCCN(C)Cc2ccc(OC)cc2)N2C[C@H](c3ccccc3)N(CCc3ccc(Cl)c(Cl)c3)C(=O)C2=O)cc1`, the IC50 is 45.7 µM. With `CCCCOc1ccc(Br)cc1CSC(=N)N` the figure was 75.5 µM; with `CCCCCOc1ccc(Br)cc1CSC(=N)N`, 61.1 µM. `Cc1ccc(Nc2cc(C)c3ccc(O)cc3n2)cc1C`: the IC50 is 146 µM. For `CO[C@H]1/C=C/O[C@@]2(C)Oc3c(C)c(O)c4c(O)c(c(C=NN5CCN(C)CC5)c(O)c4c3C2=O)NC(=O)/C(C)=C\C=C\[C@H](C)[C@H](O)[C@@H](C)[C@@H](O)[C@@H](C)[C@H](OC(C)=O)[C@@H]1C`, the IC50 was 6.41 µM. Under `CC(C)NC1=C(Cl)C(=O)c2ccccc2C1=O` stands 38.3 µM; under `CC(=O)NC(c1ccc(C)cc1)c1cc([N+](=O)[O-])c2cccnc2c1O` (stereo not given), 33.5 µM.

For `CN1CCN(CCCN2c3ccccc3Sc3ccc(Cl)cc32)CC1`, the IC50 was 51 µM. On to `C=CC1=C(C(=O)O)N2C(=O)[C@@H](NC(=O)/C(=N\O)c3csc(N)n3)[C@H]2SC1` (stereo in doubt), for which the IC50 is 33.3 µM. Under `O=C1C(SCCO)=C(SCCO)C(=O)c2ccccc21` stands 68 µM; under `COc1c(N2CCN(C(=S)Nc3ccccc3F)C(C)C2)c(F)cc2c(=O)c(C(=O)O)cn(C3CC3)c12` (stereo not given), 15.3 µM; under `Cc1ccc(C(c2cc(Cl)c3cccnc3c2O)N2CCN(C)CC2)cc1` (stereo not given), 33.5 µM. As to `O=C(N/N=C/c1cc2c3c(c1O)CCCN3CCC2)c1ccccc1O`, the IC50 was 95.3 µM. With `CCn1cc(C(=O)O)c(=O)c2cc(F)c(N3CCN(C(=S)NC(=O)c4ccccc4C)CC3)cc21` the figure was 27.6 µM; with `C#CCOCCOCCOCCNc1nc(N2CCN(C(=O)CCCCCCCCCCNC(=O)[C@H](CCCCN)n3cc(C[C@@H](C)CC)nn3)CC2)nc(N2CCN(C(=O)CCCCCCCCCCNC(=O)[C@H](CCCN=C(N)N)n3cc(C[C@@H](C)CC)nn3)CC2)n1`, 78 µM; with `Cc1[nH]n(-c2ccccc2)c(=O)c1/C=N/Nc1nncc(-c2ccccc2)n1`, 19.1 µM. Under `CCCOc1ccc(Br)cc1CSC(=N)N` stands 134 µM; under `CCCCN(CCCC)C(=O)c1cn(CC)c2cc(N3CCN(C)CC3)c(F)cc2c1=O`, 21.9 µM. Under `OC(c1cc(C(F)(F)F)nc2c(Cl)cc(Cl)cc12)C1CCCCN1` (stereo not given) stands 80.5 µM; under `OC(CNCCc1ccccc1)COc1ccc(OCC(O)CNCCc2ccccc2)cc1` (stereo not given), 63.7 µM.

On to `CCCCCc1ccc(OCCC[n+]2ccccc2)c(CCCCC)c1`, for which the IC50 was 70.1 µM. Under `Oc1c(CN2CCOCC2)cc(COCc2ccccc2)c2cccnc12` stands 69.5 µM; under `CCCCCCCCCCOC(=O)Cn1c(COc2cccc(C)c2)[n+](C)c2ccccc21`, 19.7 µM. Under `Oc1ccc(Cl)cc1Cc1cc(Cl)ccc1O` stands 38.6 µM; under `CC1(C)CC(=O)C(C(=O)/C=C/NCCc2ccccc2)C(=O)C1`, 122 µM; under `CC1CCCC(C)N1/N=C/c1c[nH]c2ccc(Br)cc12` (stereo not given), 88.9 µM.

In the case of `C/C(=N\N=C(N)N)c1ccc(Cl)c(Cl)c1`, the IC50 is 94.2 µM.

As to `Oc1ccc(CN2CCCc3ccccc32)c2cccnc12`, the IC50 is 28.5 µM. As for `CCCCCCCCCCOC(=O)Cn1c(COc2ccccc2OC)[n+](C)c2ccccc21`, the IC50 is 21.4 µM. `O=C(NNC(=O)c1cnccn1)c1ccc(Cl)cc1`: the IC50 is 117 µM. As for `CCn1cc(C(=O)O)c(=O)c2cc(F)c(N3CCN(C(=S)NC(=O)c4ccc(F)cc4)CC3)cc21`, the IC50 is 104 µM.

`Nc1cc2nsnc2cc1Br`: the IC50 is 77.3 µM.

For `CCN1CCN(C(c2cccnc2)c2cc(Cl)c3cccnc3c2O)CC1` (stereo not given), the IC50 was 36 µM. With `CS(=O)(=O)c1ccc([C@@H](O)[C@@H](CF)NC(=O)C(Cl)Cl)cc1`, the IC50 was 16.6 µM. Take `CC(C)(C)/C(O)=C/c1nc2cc(Cl)ccc2oc1=O`: the IC50 is 65.1 µM.

For `c1ccc(-c2nnc(-c3ccccn3)nc2NC2CCCCC2)cc1`, the IC50 was 78.3 µM. With `C=C1c2cccc(O)c2C(O)=C2C(=O)[C@]3(O)C(O)=C(C(N)=O)C(=O)[C@@H](N(C)C)[C@@H]3[C@@H](O)[C@H]12`, the IC50 is 0.67 µM. As to `CC(C(=O)c1ccc(-c2ccccc2)cc1)[n+]1cccc(NC(=O)c2ccccc2)c1` (stereo not given), the IC50 was 76.6 µM. For the molecule `Cc1ccccc1NC(=O)CCC(=O)N/N=C/c1cc([N+](=O)[O-])ccc1O`, the IC50 is 48.6 µM. With `Clc1cc(Br)ccc1OCCCNCc1ccccc1` the figure was 75.6 µM; with `Nc1nnc(-c2cccc(Cl)c2Cl)c(N)n1`, 60.5 µM; with `CCCCOc1ccc(Cc2cnc(N)nc2N)cc1`, 38.2 µM. For `O=C(N/N=C/c1cccs1)c1cccs1`, the IC50 was 67.8 µM. With `O=C(/C=C/c1ccccc1Cl)c1ccccc(=O)c1O` the figure was 23.8 µM; with `CCCCCCNC(=O)c1cn(CC)c2cc(N3CCN(C)CC3)c(F)cc2c1=O`, 38.9 µM.

Consider `O=C(O)c1cc(O)c2c(c1)[C@@H]([C@H]1c3cc(C(=O)O)cc(O)c3C(=O)c3c(O[C@@H]4O[C@H](CO)[C@@H](O)[C@H](O)[C@H]4O)cccc31)c1cccc(OC3O[C@H](CO)[C@@H](O)[C@H](O)[C@H]3O)c1C2=O` (stereo not given in full), for which the IC50 was 83.6 µM. As for `Cc1ccc(-c2csc(NC(=O)C[n+]3cc(-c4ccc(C)cc4)n4c3CCC4)n2)cc1`, the IC50 was 38.4 µM.
